{"source": "patent US20250230155A1", "about": "(Vanderbilt University, priority 2021, published 2025)", "target": "T1, human mAChR M4 (Homo sapiens, UniProt P08173)", "T1 construct": "expressed in transfected cells", "T1 sequence (P08173 1-479)": "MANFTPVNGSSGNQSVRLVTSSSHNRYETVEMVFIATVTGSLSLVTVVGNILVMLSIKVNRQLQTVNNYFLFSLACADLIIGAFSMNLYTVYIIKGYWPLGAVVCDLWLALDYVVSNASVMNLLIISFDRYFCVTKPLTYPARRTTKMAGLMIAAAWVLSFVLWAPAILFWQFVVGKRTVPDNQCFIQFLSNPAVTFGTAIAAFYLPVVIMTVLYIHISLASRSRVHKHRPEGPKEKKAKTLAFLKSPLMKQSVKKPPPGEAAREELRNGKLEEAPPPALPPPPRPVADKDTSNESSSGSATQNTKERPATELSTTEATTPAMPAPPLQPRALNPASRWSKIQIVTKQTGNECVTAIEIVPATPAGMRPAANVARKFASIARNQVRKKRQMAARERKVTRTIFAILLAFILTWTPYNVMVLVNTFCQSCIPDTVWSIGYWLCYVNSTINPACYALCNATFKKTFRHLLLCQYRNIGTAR", "experiment": "mAChR M4 cell-based functional assay (calcium mobilization, CHO-K1 hM4-Gqi5 cells)", "conditions": "for Emax at 30 µM: CHO-K1, % ACh maximum at 30 μM, human M4; for EC50: positive allosteric modulator activity, increase in the EC20 acetylcholine response, CHO-K1 hM4-Gqi5 cells, read-out: Human M4 EC50", "summary_of_the_method": "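Fluorescent calcium read-out (Fluo-4 AM, FDSS, 1 Hz) in hM4-Gqi5 CHO-K1 cells, 11-point 1:3 compound series. Agonism scored on compound addition, PAM activity as increase of the 144 s EC20 acetylcholine response, antagonism as decrease of the 230 s EC80 response; four-parameter logistic fits give EC50 and Emax.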", "data": [{"smiles": "Cc1cc(C#N)cnc1N1CCc2ncc(OCCOc3ccc(F)cc3)cc2C1", "note": "[Example 428, 6-(3-(2-(4-fluorophenoxy)ethoxy)-7,8-dihydro-1,6-naphthyridin-6(5H)-yl)-5-methylnicotinonitrile]", "values": [{"measurement": "Emax at 30 µM", "value": 59, "unit": "%"}, {"measurement": "EC50", "value": 2350, "unit": "nM"}]}, {"smiles": "Cc1cc(CNC(=O)c2cnc(N3CCc4ncccc4C3)c(C)c2)ccn1", "note": "[compound 129, 6-(7,8-dihydro-5H-1,6-naphthyridin-6-yl)-5-methyl-N-[(2-methyl-4-pyridyl)methyl]pyridine-3-carboxamide]", "values": [{"measurement": "Emax at 30 µM", "value": 61, "unit": "%"}, {"measurement": "EC50", "value": 3340, "unit": "nM"}]}, {"smiles": "Cc1cc(C(=O)N2CC3(C2)CC(F)(F)C3)nnc1N1CCc2ncc(-n3cccn3)cc2C1", "note": "[Example 570, (6-(3-(1H-pyrazol-1-yl)-7,8-dihydro-1,6-naphthyridin-6(5H)-yl)-5-methylpyridazin-3-yl)(6,6-difluoro-2-azaspiro[3.3]heptan-2-yl)methanone]", "values": [{"measurement": "Emax at 30 µM", "value": 84, "unit": "%"}, {"measurement": "EC50", "value": 340, "unit": "nM"}]}, {"smiles": "Cc1nc(Cl)c(C)c(N2Cc3cc(C(F)(F)F)cnc3C(C)C2)n1", "note": "(centres unmarked) [compound 256, 6-(6-chloro-2,5-dimethylpyrimidin-4-yl)-8-methyl-3-(trifluoromethyl)-5,6,7,8-tetrahydro-1,6-naphthyridine]", "values": [{"measurement": "Emax at 30 µM", "value": 85, "unit": "%"}, {"measurement": "EC50", "value": 663, "unit": "nM"}]}, {"smiles": "Cc1nc(NCC(C)(C)O)nc(N2CCc3ncc(Nc4ccnn4C)cc3C2)c1C", "note": "[compound 280, 1-((4,5-dimethyl-6-(3-((1-methyl-1H-pyrazol-5-yl)amino)-7,8-dihydro-1,6-naphthyridin-6(5/I)-yl)pyrimidin-2-yl)amino)-2-methylpropan-2-ol]", "values": [{"measurement": "Emax at 30 µM", "value": 105, "unit": "%"}, {"measurement": "EC50", "value": 261, "unit": "nM"}]}, {"smiles": "Cc1cc(C(=O)NCc2nc3ccccc3s2)cnc1N1CCc2ncc(-c3cn(C)nc3C)cc2C1", "note": "[Example 453, N-(benzo[d]thiazol-2-ylmethyl)-6-(3-(1,3-dimethyl-1H-pyrazol-4-yl)-7,8-dihydro-1,6-naphthyridin-6(5H)-yl)-5-methylnicotinamide]", "values": [{"measurement": "Emax at 30 µM", "value": 92, "unit": "%"}, {"measurement": "EC50", "value": 828, "unit": "nM"}]}, {"smiles": "Cc1cc(C#N)cnc1N1CCc2ncc(N3CCCc4ncccc43)cc2C1", "note": "[Example 362, 6-(3-(3,4-dihydro-1,5-naphthyridin-1(2H)-yl)-7,8-dihydro-1,6-naphthyridin-6(5H)-yl)-5-methylnicotinonitrile]", "values": [{"measurement": "Emax at 30 µM", "value": 96, "unit": "%"}, {"measurement": "EC50", "value": 76, "unit": "nM"}]}, {"smiles": "[2H]C([2H])([2H])c1cnc2c(c1)CN(c1nnc(C(=O)N3CC(F)(F)C3)cc1C)CC2", "note": "[Example 576, (3,3-difluoroazetidin-1-yl)(5-methyl-6-(3-(methyl-d3)-7,8-dihydro-1,6-naphthyridin-6(5H)-yl)pyridazin-3-yl)methanone]", "values": [{"measurement": "Emax at 30 µM", "value": 71, "unit": "%"}, {"measurement": "EC50", "value": 41, "unit": "nM"}]}, {"smiles": "Cc1cc(C(=O)N2CCc3cccnc3C2)nnc1N1CCc2ncc(C(F)(F)F)cc2C1", "note": "[Example 500, (5,8-dihydro-1,7-naphthyridin-7(6H)-yl)(5-methyl-6-(3-(trifluoromethyl)-7,8-dihydro-1,6-naphthyridin-6(5H)-yl)pyridazin-3-yl)methanone]", "values": [{"measurement": "Emax at 30 µM", "value": 92, "unit": "%"}, {"measurement": "EC50", "value": 1790, "unit": "nM"}]}, {"smiles": "Cc1cc(C(=O)N2CCCC2)nnc1N1CCc2ncc(-n3cccn3)cc2C1", "note": "[Example 530, (6-(3-(1H-pyrazol-1-yl)-7,8-dihydro-1,6-naphthyridin-6(5H)-yl)-5-methylpyridazin-3-yl)(pyrrolidin-1-yl)methanone]", "values": [{"measurement": "Emax at 30 µM", "value": 81, "unit": "%"}, {"measurement": "EC50", "value": 3030, "unit": "nM"}]}, {"smiles": "Cc1ccc(Oc2cnc3c(c2)CN(c2nc(C)nc(C)c2C)CC3)c(F)c1", "note": "[compound 269, 3-(2-fluoro-4-methylphenoxy)-6-(2,5,6-trimethylpyrimidin-4-yl)-5,6,7,8-tetrahydro-1,6-naphthyridine]", "values": [{"measurement": "Emax at 30 µM", "value": 89, "unit": "%"}, {"measurement": "EC50", "value": 1080, "unit": "nM"}]}, {"smiles": "Cc1cc(C(=O)N2CCCC2(C)C)nnc1N1CCc2ncc(N3CCCn4nccc43)cc2C1", "note": "[Example 529, (6-(3-(6,7-dihydropyrazolo[1,5-a]pyrimidin-4(5H)-yl)-7,8-dihydro-1,6-naphthyridin-6(5/I)-yl)-5-methylpyridazin-3-yl)(2,2-dimethylpyrrolidin-1-yl)methanone]", "values": [{"measurement": "Emax at 30 µM", "value": 68, "unit": "%"}, {"measurement": "EC50", "value": 570, "unit": "nM"}]}, {"smiles": "Cc1nc(C)c(C)c(N2CCc3ncc(-c4cn(C)nc4C)cc3C2)n1", "note": "[compound 201, 3-(1,3-dimethylpyrazol-4-yl)-6-(2,5,6-trimethylpyrimidin-4-yl)-7,8-dihydro-5H-1,6-naphthyridine]", "values": [{"measurement": "Emax at 30 µM", "value": 77, "unit": "%"}, {"measurement": "EC50", "value": 176, "unit": "nM"}]}, {"smiles": "Cc1c(C#N)nnc(N2CCc3ncc(-c4ccc(Cl)nc4)cc3C2)c1C", "note": "[compound 56, 6-[3-(6-chloro-3-pyridyl)-7,8-dihydro-5H-1,6-naphthyridin-6-yl]-4,5-dimethyl-pyridazine-3-carbonitrile]", "values": [{"measurement": "Emax at 30 µM", "value": 53, "unit": "%"}, {"measurement": "EC50", "value": 364, "unit": "nM"}]}, {"smiles": "Cc1cc(F)ncc1-c1cnc2c(c1)CN(c1nccc(C#N)c1C)CC2", "note": "[Example 437, 2-(3-(6-fluoro-4-methylpyridin-3-yl)-7,8-dihydro-1,6-naphthyridin-6(5H)-yl)-3-methylisonicotinonitrile]", "values": [{"measurement": "Emax at 30 µM", "value": 47, "unit": "%"}, {"measurement": "EC50", "value": 692, "unit": "nM"}]}, {"smiles": "Cc1cc(C(=O)NC2(c3cccnc3)CC2)nnc1N1CCc2ncc(N3CCCn4nccc43)cc2C1", "note": "[Example 553, 6-(3-(6,7-dihydropyrazolo[1,5-a]pyrimidin-4(5H)-yl)-7,8-dihydro-1,6-naphthyridin-6(5H)-yl)-5-methyl-N-(1-(pyridin-3-yl)cyclopropyl)pyridazine-3-carboxamide]", "values": [{"measurement": "Emax at 30 µM", "value": 80, "unit": "%"}, {"measurement": "EC50", "value": 21, "unit": "nM"}]}, {"smiles": "Cc1cc(C(=O)NCc2ccc3nccnc3c2)cnc1N1CCc2ncccc2C1", "note": "[compound 157, 6-(7,8-dihydro-5H-1,6-naphthyridin-6-yl)-5-methyl-N-(quinoxalin-6-ylmethyl)pyridine-3-carboxamide]", "values": [{"measurement": "Emax at 30 µM", "value": 57, "unit": "%"}, {"measurement": "EC50", "value": 3480, "unit": "nM"}]}, {"smiles": "Cc1c(C#N)nnc(N2CCc3ncc(N4CCOC(c5ccccn5)C4)cc3C2)c1C", "note": "(centres unmarked) [Example 380, 4,5-dimethyl-6-(3-(2-(pyridin-2-yl)morpholino)-7,8-dihydro-1,6-naphthyridin-6(5H)-yl)pyridazine-3-carbonitrile]", "values": [{"measurement": "Emax at 30 µM", "value": 63, "unit": "%"}, {"measurement": "EC50", "value": 2150, "unit": "nM"}]}, {"smiles": "COc1nc(N2CCc3ncc(C(F)(F)F)cc3C2)c(C)cc1C#N", "note": "[Example 371, 2-methoxy-5-methyl-6-(3-(trifluoromethyl)-7,8-dihydro-1,6-naphthyridin-6(5H)-yl)nicotinonitrile]", "values": [{"measurement": "Emax at 30 µM", "value": 75, "unit": "%"}, {"measurement": "EC50", "value": 4350, "unit": "nM"}]}, {"smiles": "Cc1cc(C#N)cnc1N1CCc2ncc(-c3cnn(CC(C)C)c3)cc2C1", "note": "[compound 112, 6-[3-(1-isobutylpyrazol-4-yl)-7,8-dihydro-5H-1,6-naphthyridin-6-yl]-5-methyl-pyridine-3-carbonitrile]", "values": [{"measurement": "Emax at 30 µM", "value": 76, "unit": "%"}, {"measurement": "EC50", "value": 465, "unit": "nM"}]}, {"smiles": "Cc1cc(C(=O)NCc2cncs2)nnc1N1CCc2ncc(CC(F)(F)F)cc2C1", "note": "[Example 590, 5-methyl-N-(thiazol-5-ylmethyl)-6-(3-(2,2,2-trifluoroethyl)-7,8-dihydro-1,6-naphthyridin-6(5H)-yl)pyridazine-3-carboxamide]", "values": [{"measurement": "Emax at 30 µM", "value": 94, "unit": "%"}, {"measurement": "EC50", "value": 41, "unit": "nM"}]}, {"smiles": "Cc1nn(C)cc1-c1cnc2c(c1)CN(c1nc(N3CCCC3)nc(C)c1C)CC2", "note": "[compound 271, 3-(1,3-dimethyl-1H-pyrazol-4-yl)-6-(5,6-dimethyl-2-(pyrrolidin-1-yl)pyrimidin-4-yl)-5,6,7,8-tetrahydro-1,6-naphthyridine]", "values": [{"measurement": "Emax at 30 µM", "value": 78, "unit": "%"}, {"measurement": "EC50", "value": 214, "unit": "nM"}]}, {"smiles": "Cc1cc(C#N)nnc1N1CCc2ncc(C(F)(F)F)cc2C1", "note": "[Example 304, 5-methyl-6-(3-(trifluoromethyl)-7,8-dihydro-1,6-naphthyridin-6(5H)-yl)pyridazine-3-carbonitrile]", "values": [{"measurement": "Emax at 30 µM", "value": 93, "unit": "%"}, {"measurement": "EC50", "value": 676, "unit": "nM"}]}, {"smiles": "Cc1cc(C(=O)N2CCCC2)nnc1N1CCc2ncc(CC(F)(F)F)cc2C1", "note": "[Example 582, (5-methyl-6-(3-(2,2,2-trifluoroethyl)-7,8-dihydro-1,6-naphthyridin-6(5H)-yl)pyridazin-3-yl)(pyrrolidin-1-yl)methanone]", "values": [{"measurement": "Emax at 30 µM", "value": 76, "unit": "%"}, {"measurement": "EC50", "value": 1910, "unit": "nM"}]}, {"smiles": "Cc1cc(C(=O)NCc2ccncc2)cnc1N1CCc2ncc(-c3cccnc3F)cc2C1", "note": "[compound 178, 6-[3-(2-fluoro-3-pyridyl)-7,8-dihydro-5H-1,6-naphthyridin-6-yl]-5-methyl-N-(4-pyridylmethyl)pyridine-3-carboxamide]", "values": [{"measurement": "Emax at 30 µM", "value": 87, "unit": "%"}, {"measurement": "EC50", "value": 262, "unit": "nM"}]}, {"smiles": "Cc1c(Cl)nc(C(F)(F)F)nc1N1CCc2ncc(-c3ccc(N(C)C)nc3)cc2C1", "note": "[compound 246, 5-(6-(6-chloro-5-methyl-2-(trifluoromethyl)pyrimidin-4-yl)-5,6,7,8-tetrahydro-1,6-naphthyridin-3-yl)-N,N-dimethylpyridin-2-amine]", "values": [{"measurement": "Emax at 30 µM", "value": 19, "unit": "%"}, {"measurement": "EC50", "value": 8390, "unit": "nM"}]}, {"smiles": "Cc1c(Cl)nc(C(F)(F)F)nc1N1CCc2ncc(N3CCCn4nccc43)cc2C1", "note": "[compound 248, 6-(6-chloro-5-methyl-2-(trifluoromethyl)pyrimidin-4-yl)-3-(6,7-dihydropyrazolo[1,5-a]pyrimidin-4(5H)-yl)-5,6,7,8-tetrahydro-1,6-naphthyridine]", "values": [{"measurement": "Emax at 30 µM", "value": 88, "unit": "%"}, {"measurement": "EC50", "value": 300, "unit": "nM"}]}, {"smiles": "Cc1cc(C(=O)Nc2ccncc2)cnc1N1CCc2ncccc2C1", "note": "[compound 121, 6-(7,8-dihydro-5H-1,6-naphthyridin-6-yl)-5-methyl-N-(4-pyridyl)pyridine-3-carboxamide]", "values": [{"measurement": "Emax at 30 µM", "value": 70, "unit": "%"}, {"measurement": "EC50", "value": 544, "unit": "nM"}]}]}
